Here are results for 20 compounds from US6218406A, “Farnesyl transferase inhibitors, their preparation, the pharmaceutical compositions which contain them and their use in the preparation of medicaments” (Aventis Pharma S.A., priority 1996, dated 2001).

Structures can show the parent of a compound that is named as a salt. Where two headings read alike, the source gives them in different places.

The target in the assay is farnesyl transferase (Homo sapiens, UniProt P49354+P49356). Put plainly: Farnesyl transferase inhibition, [3H]-farnesylation of biotinylated K-ras C-terminal peptide (SPA assay). The assay is classed as biochemical. The note with it: 60 min at 37° C., mean of two IC50 values.
Where [1] appears, read: K-Ras substrate, read-out: In vitro inhibitory activity (K-Ras) IC50.

The term IC50 denotes the concentration that inhibits the measured activity by half. As for `C=C(C(=O)N1C[C@@H]2[C@]3(c4ccc5c(c4)OCCO5)CC[C@@H](c4ccccc43)[C@]2(C(=O)NCc2cccs2)C1)c1ccccc1OC` (relative stereo) [Example 36, (3aRS,4SR,9SR,9aRS)-9-(2,3-dihydro-1,4-benzodioxin-6-yl)-4,9-ethano-2-[2-(2-methoxyphenyl)propenoyl]-2,3,3a,4,9,9a-hexahydro-1H-benzo[f]isoindole-3a-N-(2-thienylmethyl)carboxamide], the IC50 under setting [1] was found to be 0.12 µM.

For the compound `C=C(C(=O)N1C[C@@H]2[C@]3(c4ccc(C(F)(F)F)cc4)CC[C@@H](c4ccccc43)[C@]2(C(=O)NCc2cccnc2)C1)c1ccccc1OC` (relative stereo) [Example 42, (3aRS,4SR,9SR,9aRS)-4,9-ethano-2-[2-(2-methoxyphenyl)propenoyl]-9-[4-(trifluoromethyl)phenyl]-2,3,3a,4,9,9a-hexahydro-1H-benzo[f]isoindole-3a-N-(3-pyridylmethyl)carboxamide], the IC50 under setting [1] stood at 0.083 µM.

Turning to `C=C(C(=O)N1C[C@@H]2[C@]3(c4ccc(C(F)(F)F)cc4)CC[C@@H](c4ccccc43)[C@]2(C(=O)NNC(=O)c2ccccc2)C1)c1ccccc1OC` (relative stereo) [Example 43, (3aRS,4SR,9SR,9aRS)-4,9-ethano-2-[2-(2-methoxyphenyl)propenoyl]-9-[4-(trifluoromethyl)phenyl]-2,3,3a,4,9,9a-hexahydro-1H-benzo[f]isoindole-3a-N'-benzoylcarbohydrazide], the IC50 under setting [1] amounted to 0.59 µM.

In the case of `C=C(C(=O)N1C[C@@H]2[C@]3(c4ccc(C(F)(F)F)cc4)CC[C@@H](c4ccccc43)[C@]2(C(=O)NNc2ccccc2)C1)c1ccccc1OC` (relative stereo) [Example 44, (3aRS,4SR,9SR,9aRS)-4,9-ethano-2-[2-(2-methoxyphenyl)propenoyl]-9-[4-(trifluoromethyl)phenyl]-2,3,3a,4,9,9a-hexahydro-1H-benzo[f]isoindole-3a-N'-phenylcarbohydrazide], the IC50 under setting [1] stood at 0.369 µM.

On to `C=C(C(=O)N1C[C@@H]2[C@]3(c4ccc5ccccc5c4)CC[C@@H](c4ccccc43)[C@]2(C(=O)O)C1)c1ccccc1OC` (relative stereo) [Example 46, sodium salt of (3aRS,4SR,9SR,9aRS)-4,9-ethano-2-[2-(2-methoxyphenyl)propenoyl]-9-(2-naphthyl)-2,3,3a,4,9,9a-hexahydro-1H-benzo[f]isoindole-3a-carboxylic Acid], for which the IC50 under setting [1] turned out to be 0.132 µM.

Take `C=C(C(=O)N1C[C@@H]2[C@]3(c4ccc5c(c4)CCO5)CC[C@@H](c4ccccc43)[C@]2(C(=O)NCc2cccnc2)C1)c1ccccc1OC` (relative stereo) [Example 63, (3aRS,4SR,9SR,9aRS)-9-(2,3-dihydrobenzofuran-5-yl)-4,9-ethano-2-[2-(2-methoxyphenyl)propenoyl]-2,3,3a,4,9,9a-hexahydro-1H-benzo[f]isoindole-3a-N-(3-pyridylmethyl)carboxamide]: the IC50 under setting [1] was < 0.02 µM.

Regarding `C=C(C(=O)N1C[C@H]2[C@@]3(c4ccc(OC)cc4)CC[C@H](c4ccccc43)[C@@]2(C(=O)NCc2cccnc2)C1)c1ccccc1OC` (relative stereo) [Example 76, (3aRS,4SR,9SR,9aRS)-4,9-ethano-9-(4-methoxyphenyl)-2-[2-(2-methoxyphenyl)propenoyl]-2,3,3a,4,9,9a-hexahydro-1H-benzo[f]isoindole-3a-N-(3-pyridylmethyl)carboxamide], the IC50 under setting [1] turned out to be 0.244 µM.

In the case of `C=C(C(=O)N1C[C@H]2[C@@]3(c4ccc(OC)cc4)CC[C@H](c4ccccc43)[C@@]2(C(=O)NNc2ccccc2)C1)c1ccccc1OC` (relative stereo) [Example 77, (3aRS,4SR,9SR,9aRS)-4,9-ethano-9-(4-methoxyphenyl)-2-[2-(2-methoxyphenyl)propenoyl]-2,3,3a,4,9,9a-hexahydro-1H-benzo[f]isoindole-3a-N'-phenylcarbohydrazide], under setting [1], the IC50 turned out to be 0.204 µM.

As for `C=C(C(=O)N1C[C@H]2[C@@]3(c4ccc(OC)cc4)CC[C@H](c4ccccc43)[C@@]2(C(=O)NNc2cccnc2)C1)c1ccccc1OC` (relative stereo) [Example 79, (3aRS,4SR,9SR,9aRS)-4,9-ethano-9-(4-methoxyphenyl)-2-[2-(2-methoxyphenyl)propenoyl]-2,3,3a,4,9,9a-hexahydro-1H-benzo[f]isoindole-3a-N'-(3-pyridyl)carbohydrazide], the IC50 under setting [1] came out at 0.045 µM.

Take `C=C(C(=O)N1C[C@H]2[C@@]3(c4ccc(OC)cc4)CC[C@H](c4ccccc43)[C@@]2(C(=O)NCc2ccsc2)C1)c1ccccc1OC` (relative stereo) [Example 80, (3aRS,4SR,9SR,9aRS)-4,9-ethano-9-(4-methoxyphenyl)-2-[2-(2-methoxyphenyl)propenoyl]-2,3,3a,4,9,9a-hexahydro-1H-benzo[f]isoindole-3a-N-(3-thienylmethyl)carboxamide]: the IC50 under setting [1] is 0.067 µM.

As for `C=C(C(=O)N1C[C@H]2[C@@]3(c4cccc(F)c4)CC[C@H](c4ccccc43)[C@@]2(C(=O)NCc2cccnc2)C1)c1ccccc1OC` (relative stereo) [Example 87, (3aRS,4SR,9SR,9aRS)-4,9-ethano-9-(3-fluorophenyl)-2-[2-(2-methoxyphenyl)propenoyl]-2,3,3a,4,9,9a-hexahydro-1H-benzo[f]isoindole-3a-N-(3-pyridylmethyl)carboxamide], the IC50 under setting [1] worked out at 0.064 µM.

Take `C=C(C(=O)N1C[C@H]2[C@@]3(c4cccc(Cl)c4)CC[C@H](c4ccccc43)[C@@]2(C(=O)NCc2cccnc2)C1)c1ccccc1OC` (relative stereo) [Example 90, (3aRS,4SR,9SR,9aRS)-9-(3-chlorophenyl)-4,9-ethano-2-[2-(2-methoxyphenyl)propenoyl]-2,3,3a,4,9,9a-hexahydro-1H-benzo[f]isoindole-3a-N-(3-pyridylmethyl)carboxamide]: the concentration for half-maximal inhibition (IC50) under setting [1] came out at 0.068 µM.

For `C=C(C(=O)N1C[C@H]2[C@@]3(c4cccc(N(C)C)c4)CC[C@H](c4ccccc43)[C@@]2(C(=O)OC)C1)c1ccccc1OC` (relative stereo) [Example 91, methyl (3aRS,4SR,9SR,9aRS)-9-(3-N,N-dimethylaminophenyl)-4,9-ethano-2-[2-(2-methoxyphenyl)propenoyl]-2,3,3a,4,9,9a-hexahydro-1H-benzo[f]isoindole-3a-carboxylate], the IC50 under setting [1] turned out to be 0.183 µM.

As to `C=C(C(=O)N1C[C@H]2[C@@]3(c4cccc(N(C)C)c4)CC[C@H](c4ccccc43)[C@@]2(C(=O)O)C1)c1ccccc1OC` (relative stereo) [Example 92, (3aRS,4SR,9SR,9aRS)-9-(3-N,N-dimethylaminophenyl)-4,9-ethano-2-[2-(2-methoxyphenyl)propenoyl]-2,3,3a,4,9,9a-hexahydro-1H-benzo[f]isoindole-3a-carboxylic Acid], the IC50 under setting [1] worked out at 0.028 µM.

On to `C=C(C(=O)N1C[C@H]2[C@@]3(c4ccc(N(C)C)cc4)CC[C@H](c4ccccc43)[C@@]2(C(=O)OC)C1)c1ccccc1OC` (relative stereo) [Example 94, methyl (3aRS,4SR,9SR,9aRS)-9-(4-N,N-dimethylaminophenyl)-4,9-ethano-2-[2-(2-methoxyphenyl)propenoyl]-2,3,3a,4,9,9a-hexahydro-1H-benzo[f]-isoindole-3a-carboxylate], for which, under setting [1], the IC50 worked out at 0.557 µM.

Turning to `C=C(C(=O)N1C[C@H]2[C@@]3(c4ccc(C)cc4)CC[C@H](c4ccccc43)[C@@]2(C(=O)O)C1)c1ccccc1OC` (single isomer, unassigned) [Example 4, laevorotatory enantiomer of (3aRS,4SR,9RS,9aRS)-4,9-ethano-2-[2-(2-methoxyphenyl)propenoyl]-9-(4-methylphenyl)-2,3,3a,4,9,9a-hexahydro-1H-benzo[f]isoindole-3a-carboxylic acid], under setting [1], the IC50 was 1.8 µM.

In the case of `C=C(C(=O)N1C[C@H]2[C@@]3(c4ccc(C)cc4)CC[C@H](c4ccccc43)[C@@]2(C(=O)NCc2cccnc2)C1)c1ccccc1OC` (single isomer, unassigned) [Example 18, Dextrorotatory Enantiomer of (3aRS,4SR,9SR,9aRS)-4,9-ethano-2-[2-(2-methoxyphenyl)propenoyl]-9-(4-methylphenyl)-2,3,3a,4,9,9a-hexahydro-1H-benzo[f]isoindole-3a-N-(3-pyridylmethyl)carboxamide], the IC50 under setting [1] came to 0.05 µM.

Consider `C=C(C(=O)N1C[C@H]2[C@@]3(c4ccc(C)cc4)CC[C@H](c4ccccc43)[C@@]2(C(=O)NCc2cccnc2)C1)c1ccccc1OC` (single isomer, unassigned) [Example 19, Levorotatory Enantiomer of (3aRS,4SR,9SR,9aRS)-4,9-ethano-2-[2-(2-methoxyphenyl)propenoyl]-9-(4-methylphenyl)-2,3,3a,4,9,9a-hexahydro-1H-benzo[f]isoindole-3a-N-(3-pyridylmethyl)carboxamide], for which the IC50 under setting [1] was 0.181 µM.

Compound `COc1ccccc1CC(=O)N1C[C@H]2[C@@]3(c4ccc(C)cc4)CC[C@H](c4ccccc43)[C@@]2(C(=O)O)C1` (single isomer, unassigned) [Example 30, dextrorotatory enantiomer of (3aRS,4SR,9SR,9aRS)-4,9-ethano-2-[2-(2-methoxyphenyl)acetyl]-9-(4-methylphenyl)-2,3,3a,4,9,9a-hexahydro-1H-benzo[f]isoindole-3a-carboxylic Acid] registered an IC50 (In vitro inhibitory activity (K-Ras) IC50, K-Ras substrate) of 0.074 µM.

In the case of `C=C(C(=O)N1C[C@H]2[C@@]3(c4ccc5c(c4)OCCO5)CC[C@H](c4ccccc43)[C@@]2(C(=O)NCc2cccnc2)C1)c1ccccc1OC` (single isomer, unassigned) [Example 34, dextrorotatory enantiomer of (3aRS,4SR,9SR,9aRS)-9-(2,3-dihydro-1,4-benzodioxin-6-yl)-4,9-ethano-2-[2-(2-methoxyphenyl)propenoyl]-2,3,3a,4,9,9a-hexahydro-1H-benzo[f]isoindole-3a-N-(3-pyridylmethyl)carboxamide], the IC50 under setting [1] was < 0.02 µM.
